Three compounds from ChEMBL document CHEMBL4765277, “Design, synthesis and biological evaluation of novel indazole-based derivatives as potent HDAC inhibitors via fragment-based virtual screening” (Eur J Med Chem, 2020) can be followed below.

pIC50: −log10 of the molar value. Activity calls are given as the source filed them. No cut-off for these calls is given here.

Assay [1] concerns HCT-116. Description: Induction of cell cycle arrest in human HCT116 cells assessed as cell accumulation at G0/G1 phase at 3 uM after 24 hrs by Rnase/PI staining based flow cytometric analysis (reference value: 48.4%). The class given is functional.
Assay [2] concerns HCT-116. Description: Induction of apoptosis in human HCT-116 cells assessed as viable cells at 3 uM after 24 hrs by Annexin V-FITC/PI staining based flow cytometric analysis (reference value: 90.34%). The class given is functional. The note with it: Homo sapiens, HCT-116, read-out: Activity.
In assay [3] the test system is HCT-116. The experiment in a line: Induction of apoptosis in human HCT-116 cells assessed as late apoptotic cells at 10 uM after 24 hrs by Annexin V-FITC/PI staining based flow cytometric analysis (reference value: 5.14%). The class given is functional. On the technique in general: In flow cytometry, cells or beads pass a laser one at a time.
The next assay has as its target T1, Histone deacetylase 8 (Homo sapiens, UniProt Q9BY41).
T1 sequence (Q9BY41 whole entry): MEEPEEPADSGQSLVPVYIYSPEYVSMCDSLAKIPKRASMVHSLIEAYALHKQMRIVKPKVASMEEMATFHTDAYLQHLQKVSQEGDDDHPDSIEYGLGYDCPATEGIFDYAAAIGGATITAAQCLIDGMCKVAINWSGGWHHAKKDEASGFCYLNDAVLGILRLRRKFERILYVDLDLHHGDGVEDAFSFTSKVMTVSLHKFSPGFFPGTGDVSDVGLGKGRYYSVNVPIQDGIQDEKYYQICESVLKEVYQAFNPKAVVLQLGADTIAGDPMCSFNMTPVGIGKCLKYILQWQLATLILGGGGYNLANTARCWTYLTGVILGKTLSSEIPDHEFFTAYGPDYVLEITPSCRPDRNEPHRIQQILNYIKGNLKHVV
The experiment in a line: Inhibition of recombinant human full length C-terminal His-tagged HDAC8 expressed in sf9 insect cells using Boc-Lys(TFA)-AM as substrate incubated for 60 mins by fluorescence assay.

In assay [4] the test system is HCT-116. The experiment in a line: Induction of apoptosis in human HCT-116 cells assessed as necrotic cells at 10 uM after 24 hrs by Annexin V-FITC/PI staining based flow cytometric analysis (reference value: 0.51%). The class given is functional.
Assay [5] concerns HCT-116. The experiment in a line: Induction of apoptosis in human HCT-116 cells after 24 hrs by Annexin V-FITC/PI staining based flow cytometric analysis. The class given is functional, cell-based.
Assay [6] has as its system HCT-116. Description: Induction of apoptosis in human HCT-116 cells assessed as necrotic cells at 3 uM after 24 hrs by Annexin V-FITC/PI staining based flow cytometric analysis (reference value: 0.51%). The class given is functional.
Assay [7] deals with HCT-116. Description: Induction of apoptosis in human HCT-116 cells assessed as early apoptotic cells at 1 uM after 24 hrs by Annexin V-FITC/PI staining based flow cytometric analysis (reference value: 4.01%). The class given is functional.
Assay [8] deals with HCT-116. The experiment in a line: Induction of apoptosis in human HCT-116 cells assessed as late apoptotic cells at 3 uM after 24 hrs by Annexin V-FITC/PI staining based flow cytometric analysis (reference value: 5.14%). The class given is functional.
The subject of assay [9] is HCT-116. The experiment in a line: Antiproliferative activity against human HCT-116 cells assessed as reduction in cell viability after 72 hrs by MTT assay. The class given is functional, cell-based. The note with it: HCT-116, 72 h. (In general: Tetrazolium dyes change colour on reduction, which living cells bring about.)
For assay [10], the system named is HCT-116. The experiment in a line: Induction of apoptosis in human HCT-116 cells assessed as necrotic cells at 1 uM after 24 hrs by Annexin V-FITC/PI staining based flow cytometric analysis (reference value: 0.51%). The class given is functional.
Assay [11] has as its system HCT-116. Description: Induction of apoptosis in human HCT-116 cells assessed as early apoptotic cells at 3 uM after 24 hrs by Annexin V-FITC/PI staining based flow cytometric analysis (reference value: 4.01%). The class given is functional.
The next assay has as its target Histone deacetylase 2 (Homo sapiens, UniProt Q92769). Description: Inhibition of recombinant human C-terminal His-tagged HDAC2 (1 to end residues) expressed in sf9 insect cells using Boc-Lys(Ac)-AMC as substrate incubated for 60 mins by fluorescence assay.
In assay [12] the test system is HCT-116. The experiment in a line: Inhibition of HDAC in human HCT-116 cells assessed as up regulation of acetylated tubulin protein expression at 1.25 to 10 uM after 8 hrs by Western blot analysis. The class given is cell-based. The note with it: dose 1.25-10 µM. For orientation: A western blot detects proteins with antibodies after separation by electrophoresis.

For assay [13], the system named is HCT-116. The experiment in a line: Induction of apoptosis in human HCT-116 cells assessed as viable cells at 10 uM after 24 hrs by Annexin V-FITC/PI staining based flow cytometric analysis (reference value: 90.34%). The class given is functional. The note with it: read-out: Activity.
For assay [14], the system named is HCT-116. The experiment in a line: Induction of cell cycle arrest in human HCT116 cells assessed as cell accumulation at G2/M phase at 3 uM after 24 hrs by Rnase/PI staining based flow cytometric analysis (reference value: 26.4%). The class given is functional.
The test system of another assay is MCF7. Description: cells. The note with it: Homo sapiens, MCF7, 72 h.
The test system of assay [15] is HCT-116. The experiment in a line: Induction of apoptosis in human HCT-116 cells assessed as early apoptotic cells at 10 uM after 24 hrs by Annexin V-FITC/PI staining based flow cytometric analysis (reference value: 4.01%). The class given is functional.
The test system of assay [16] is HCT-116. The experiment in a line: Induction of cell cycle arrest in human HCT116 cells assessed as cell accumulation at S phase at 3 uM after 24 hrs by Rnase/PI staining based flow cytometric analysis (reference value: 25.2%). The class given is functional.
Assay [17] relates to HCT-116. Description: Induction of apoptosis in human HCT-116 cells assessed as viable cells at 1 uM after 24 hrs by Annexin V-FITC/PI staining based flow cytometric analysis (reference value: 90.34%). The class given is functional. Conditions: Homo sapiens, HCT-116, read-out: Activity.
The test system of assay [18] is HCT-116. Description: Induction of apoptosis in human HCT-116 cells assessed as late apoptotic cells at 1 uM after 24 hrs by Annexin V-FITC/PI staining based flow cytometric analysis (reference value: 5.14%). The class given is functional.
A further assay addresses Histone deacetylase 1 (Homo sapiens, UniProt Q13547). Description: Inhibition of recombinant human C-terminal His/FLAG-tagged HDAC1 (1 to end residues) expressed in sf9 insect cells using Boc-Lys(Ac)-AMC as substrate incubated for 60 mins by fluorescence assay.
Assay [19] relates to HCT-116. The experiment in a line: Inhibition of HDAC in human HCT-116 cells assessed as up regulation of acetylated histone H3 protein expression at 1.25 to 10 uM after 8 hrs by Western blot analysis. The class given is cell-based. The note with it: dose 1.25-10 µM.
In another assay the test system is HeLa. Description: cells. The class given is functional, cell-based. Conditions: Homo sapiens, 72 h.

Histone deacetylase 2, sequence (Q92769 whole entry): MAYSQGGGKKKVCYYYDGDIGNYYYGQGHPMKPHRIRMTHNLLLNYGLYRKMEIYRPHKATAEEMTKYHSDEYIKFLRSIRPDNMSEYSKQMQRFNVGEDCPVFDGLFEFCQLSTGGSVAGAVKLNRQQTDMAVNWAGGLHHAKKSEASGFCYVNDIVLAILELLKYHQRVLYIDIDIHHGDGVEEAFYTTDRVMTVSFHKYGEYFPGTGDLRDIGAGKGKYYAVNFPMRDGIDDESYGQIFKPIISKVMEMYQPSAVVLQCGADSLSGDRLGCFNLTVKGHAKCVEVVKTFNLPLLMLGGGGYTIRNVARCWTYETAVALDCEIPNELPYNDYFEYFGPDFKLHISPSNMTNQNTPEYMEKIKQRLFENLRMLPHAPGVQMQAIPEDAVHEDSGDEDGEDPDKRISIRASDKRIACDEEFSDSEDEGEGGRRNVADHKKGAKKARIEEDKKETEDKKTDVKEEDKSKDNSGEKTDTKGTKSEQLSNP
Histone deacetylase 1, sequence (Q13547 whole entry): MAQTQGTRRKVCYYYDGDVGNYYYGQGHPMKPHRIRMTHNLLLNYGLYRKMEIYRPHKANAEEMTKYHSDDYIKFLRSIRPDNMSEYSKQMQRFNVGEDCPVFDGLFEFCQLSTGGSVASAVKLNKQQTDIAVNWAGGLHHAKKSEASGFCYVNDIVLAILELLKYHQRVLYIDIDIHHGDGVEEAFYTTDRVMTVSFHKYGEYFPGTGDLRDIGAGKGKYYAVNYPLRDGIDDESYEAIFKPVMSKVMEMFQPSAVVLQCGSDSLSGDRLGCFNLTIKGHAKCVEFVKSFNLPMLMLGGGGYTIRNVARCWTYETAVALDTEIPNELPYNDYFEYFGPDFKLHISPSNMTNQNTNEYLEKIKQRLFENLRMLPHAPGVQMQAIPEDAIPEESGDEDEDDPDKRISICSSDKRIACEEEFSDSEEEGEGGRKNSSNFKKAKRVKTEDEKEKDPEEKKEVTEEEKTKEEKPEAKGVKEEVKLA
Description for HeLa: Antiproliferative activity against human HeLa cells assessed as reduction in cell viability after 72 hrs by MTT assay
Description for MCF7: Antiproliferative activity against human MCF7 cells assessed as reduction in cell viability after 72 hrs by MTT assay

For orientation: pIC50 means the IC50 on a negative log10 scale, so that one unit is a factor of ten. Consider `O=C(CCCCCCC(=O)Nc1n[nH]c2cc(-c3ccc(Cl)cc3)ccc12)NO`, for which the Activity in the assay on HCT-116 [1] is 26.2%; in the assay on HCT-116 [3] it was 61.98%; in the assay with HCT-116 [4], 2.47%; in the assay on HCT-116 [5], “Dose-dependent effect”; in the assay on HCT-116 [6] it was 0.86%; with HCT-116 [7], 8.73%. For the same compound, the Activity worked out at 64.75% in the assay on HCT-116 [8]; 2.41% in the assay with HCT-116 [10]; 10.36% in the assay with HCT-116 [11]; 44.1% in the assay on HCT-116 [14]; 12.32% in the assay with HCT-116 [15]; 29.7% in the assay on HCT-116 [16]. Moreover, the Activity in the assay with HCT-116 [18] was 46.29%. The viability at 3 µM in the assay with HCT-116 [2] came to 24%. The negative-log IC50 (pIC50) is 8.48 at Histone deacetylase 8; 5.41 in the assay on HCT-116 [9]; 8.44 at Histone deacetylase 2; 6.00 in the assay on MCF7; 8.51 on Histone deacetylase 1; 5.32 in the assay on HeLa. Besides, the inhibition result with HCT-116 [12] and in the assay with HCT-116 [19] was “Active” throughout. The viability at 10 µM in the assay on HCT-116 [13] turned out to be 23.2%. In addition, the viability at 1 µM with HCT-116 [17] stood at 40.6%.
For the compound `COc1ccc(-c2ccc3c(NC(=O)CCCCCCC(=O)NO)n[nH]c3n2)cc1`, the Activity is reported as 50% with HCT-116 [1]; 13.34% in the assay with HCT-116 [3]; 1.1% with HCT-116 [4]; 0.24% with HCT-116 [6]; 2.34% in the assay on HCT-116 [7]; 7.8% in the assay with HCT-116 [8]. For the same compound, the Activity was 0.31% in the assay on HCT-116 [10]; 2.89% in the assay on HCT-116 [11]; 23.9% in the assay with HCT-116 [14]; 5.75% in the assay with HCT-116 [15]; 26.1% in the assay on HCT-116 [16]; 5.52% in the assay on HCT-116 [18]. The viability at 3 µM in the assay with HCT-116 [2] was 89.1%. In addition, the pIC50 at Histone deacetylase 8 is 8.14; with HCT-116 [9], 5.39; on Histone deacetylase 2, 8.05; with MCF7 it was 5.92; on Histone deacetylase 1, 8.22; in the assay with HeLa, 5.32. Further, the inhibition entry with HCT-116 [12] and with HCT-116 [19] was “Active” each time. Further, the viability at 10 µM in the assay with HCT-116 [13] stood at 79.8%. In the assay on HCT-116 [17], the viability at 1 µM stood at 91.8%.
For the compound `COc1ccc(-c2ccc3c(NC(=O)CCCCCCC(=O)NO)n[nH]c3c2)cc1`, the Activity in the assay with HCT-116 [1] is 29.8%; with HCT-116 [3] it was 62.58%; with HCT-116 [4], 1.19%; in the assay with HCT-116 [5] it was “Dose-dependent effect”; in the assay on HCT-116 [6], 0.33%; in the assay on HCT-116 [7], 17.34%. Moreover, the Activity in the assay with HCT-116 [8] was 54.58%; in the assay with HCT-116 [10], 0.27%; with HCT-116 [11], 13.72%; in the assay with HCT-116 [14], 43.3%; in the assay on HCT-116 [15], 15.64%; with HCT-116 [16], 26.9%. In addition, the Activity in the assay with HCT-116 [18] is on record as 40.02%. Moreover, in the assay with HCT-116 [2], the viability at 3 µM was 31.4%. Further, the pIC50 on Histone deacetylase 8 was 8.44; with HCT-116 [9] it was 5.68; at Histone deacetylase 2, 8.38; with MCF7, 6.05; at Histone deacetylase 1, 8.57; in the assay on HeLa, 5.36. The inhibition entry in the assay on HCT-116 [12] and with HCT-116 [19] was “Active” throughout. The viability at 10 µM with HCT-116 [13] came out at 20.6%. Besides, in the assay on HCT-116 [17], the viability at 1 µM turned out to be 42.4%.
